The text below walks through data of US7056938B1, “Method for scavenging radicals with urocanic acid, derivatives and analogues” (Academisch Ziekenhuis Bij De Univ., priority 1999, dated 2006).

The data set in a line: photooxidation of UCA with hydrogen peroxide under UV irradiation (HPLC). Conditions: for YIELD OF PHOTOOXIDATION PRODUCTS: sum of 8 major peaks; for PHOTOISOMERIZATION cis-UCA / PHOTOISOMERIZATION trans-UCA: trans-UCA starting material. In kind it is physicochemical. The protocol:
Trans-UCA and cis-UCA were separated from each other and from several UCA oxidation products on a 4.6×250 mm Alltima C18 and Luna C18 reversed-phase column (Alitech, Deerfield, Ill. and Phenomenex, Torrence, Calif., resp.) with a flow of 0.8 mL/min, delivered by P-3500 HPLC-pumps (Pharmacia, Uppsala, Sweden). Samples of 20 to 200 μL were injected by a Promis II autosampler (Spark Holland, Emmen, The Netherlands) and chromatographic data were recorded on an SP 4270 integrator (Spectra Physics, San Jose, Calif.). Peak area data from samples were only processed under identical HPLC circumstances. A UV-detector (Applied Biosystems, model 759A, Foster City, Calif.) was set for 226 nm detection. Isocratic elution was performed with 10 mM ammonium formate buffer, containing 0.2–0.8 mM tetrabutylammonium(TBA)formate and 1% acetonitrile (pH 7.2). Collected fractions were acidified with formic acid up to a final concentration of 100 mM and passed through C18 could phase extraction columns (J T Baker, Deventer, The Netherlands) in order to remove TBA.
A 1-cm quartz cuvette, filled with 1.4 mL sample, was placed in the parallel beam of a filtered 1000 W Xenon are lamp (Oriel, Stratford, Conn.). The samples were magnetically stirred during irradiation. To minimize infrared (heat) and visible radiation, the beam was passed through a water filter (7 cm), reflected by a dichroic mirror and filtered through a 1=mm UG11 filter. Short wave cut off was achieved by passing the beam through WG280, WG305 or WG335 filters with 3 mm thickness each (Schott-Jena, Mainz, Germany). Xenon lamp emission filtered through WG280 included UV-C, UV-B and UV-A; through WG305 UV-B and UV-A and through WG335 only UV-A was included. Two narrow bands in the UV-B and UV-A spectral regions were selected to monitor the xenon-arc emission. The probe of a calibrated EG&G 550 radiometer (Salem, Mass., USA) was equipped with a neutral density filter and narrow band filter type UV-M-IL (Schott-Jena) with a transmission maximum of 21% at 303 nm and a half-width of 11.5 nm to monitor UV-B or with a type UV-PIL (Schott-Jena) with a transmission maximum of 46% at 363 nm and a half-width of 7.7 nm to monitor UV-A. Transmission spectra of the optical filters were checked on a Perkin Elmer Lambda 40 UV/VIS spectrometer (Norwalk, Conn., USA).
Additional irradiations were performed with fluorescent tubes TLI2, used as a UV-B source, and TL10R, used as a UV-A source (Philips, Eindhoven, The Netherlands), on samples that were magnetically stirred in small Petri dishes. The UV-B output was measured with an IL 443 phototherapy radiometer, fitted with a SEE 1240 silicon detector probe and the UV-A output with an IL 442A phototherapy radiometer with a SEE 115 detector probe (International Light, Newburyport, Mass., USA).
The O—O bond of hydrogen peroxide can be cleaved by UV radiation to yield hydroxyl radicals. Because both UCA isomers could effectively scavenge hydroxyl radicals, it is to be expected that UCA will be degraded and/or converted into oxidation products. The ability of simulated solar UV radiation to convert trans-UCA in the presence of hydrogen peroxide into photooxidation products was tested in vitro and analyzed by reversed-phase HPLC analysis. Hydrogen peroxide eluted close to void volume and trans-UCA and cis-UCA eluted with markedly different elution times of 20 and 64 min (FIGS. 3a–d). […] Exposing 80 μM trans-UCA in the absence of hydrogen peroxide at pH 7.2 to WG280-filtered xenon-arc emission (including UV-C and UV-B) resulted only and in the formation of cis-UCA via the process of photoisomerization (FIG. 3b). […] main photooxidation products were recognized as new peaks based on retention times and were assigned in the chromatogram (FIG. 3c).
In contrast, when exposures were performed with simulated solar radiation from which both UV-C and UV-B were blocked out by a WG335 filter, virtually no photo-oxidation products were found (FIG. 3d). […]

The mark [1] stands for this setting: TL10R unfiltered, 320–440 nm, UV-B 0, UV-A 324.
Where [2] appears, read: TL12 unfiltered, 280–366 nm, UV-B 3.6, UV-A 4.5.
Setting [3] is: Xe arc W3305, 292–400 nm, UV-B 18, UV-A 70.
Where [4] appears, read: Xe arc W3335, 320–400 nm, UV-B 0, UV-A 66.
Where [5] appears, read: Xe arc W3280, 270–400 nm, UV-B 37, UV-A 70.

Turning to `O=C(O)/C=C/c1cnc[nH]1` [trans-Urocanic acid, Trans-urocanic acid], the “YIELD OF PHOTOOXIDATION PRODUCTS” value reads like this: under setting [1], 16 (±5) A.U; under setting [2], 149 (±51) A.U; under setting [3], 239 (±14) A.U; under setting [4], 45 (±8) A.U; (trans-UCA 40 μM, hydrogen peroxide 500 μM, Xe arc W3280, 270–400 nm, UV-B 37, UV-A 70) 347 (±58) A.U. In addition, under “extensive UCA breakdown (<4% of each UCA isomer left over)”, the “lowering of initial weight after severe photooxidation” value was roughly 14%. The “UCA LEFT OVER” value is reported as 99 (±3) % (trans-UCA 40 μM, hydrogen peroxide 500 μM, TL10R unfiltered, 320–440 nm, UV-B 0, UV-A 324 kJ · M^−1); 90 (±20) % (trans-UCA 40 μM, hydrogen peroxide 500 μM, TL12 unfiltered, 280–366 nm, UV-B 3.6, UV-A 4.5 kJ · M^−1); 43 (±11) % (trans-UCA 40 μM, hydrogen peroxide 500 μM, Xe arc W3280, 270–400 nm, UV-C,-B,-A included, UV-B 37, UV-A 70 kJ · M^−1); 64 (±6) % (trans-UCA 40 μM, hydrogen peroxide 500 μM, Xe arc W3305, 292–400 nm, UV-B,-A included, UV-B 18, UV-A 70 kJ · M^−1); 95 (±5) % (trans-UCA 40 μM, hydrogen peroxide 500 μM, Xe arc W3335, 320–400 nm, only UV-A included, UV-B 0, UV-A 66 kJ · M^−1). For the same compound, the “PHOTOISOMERIZATION cis-UCA” value was determined as 16% under setting [1]; 59% under setting [2]; 59% under setting [5]; 53% under setting [3]; 40% under setting [4]. The “PHOTOISOMERIZATION trans-UCA” value by setting is: under setting [1], 84 (±7) %; under setting [2], 41 (±4) %; under setting [5], 43 (±2) %; under setting [3], 47 (±3) %; under setting [4], 60 (±2) %.
